Laboratory results reported in paper PMC5818615, “Use of HuH6 and other human-derived hepatoma lines for the detection of genotoxins: a new hope for laboratory animals?” (Archives of Toxicology, 2017).
Like-named read-outs stand apart in the source and are kept apart here.

What was measured:
[1] = tested on: primary human hepatocytes; conditions: ref Wilkening et al. [2003]; cited from earlier work
[2] = ref IARC [1993]; cited from earlier work
HCC 1.2 cells = conditions: 48 h
Method: (§1) The SCGE experiments were conducted as described in an international guideline (Tice et al. [2000]). Reagents for the assays (lysis solution and alkaline electrophoresis buffer) and agarose-coated slides were prepared according to Collins and Dusinska ([2009]).
(§2) Briefly, cells were sub-cultured in 1.0 ml medium in 24–well tissue-culture plates (Sarstedt Inc., Newton, NC, USA). After 24 h, the media were changed and the cells exposed to different concentrations of the test compounds or to the solvent controls (PBS or DMSO). […] To terminate the treatment, the cells were washed twice with PBS (1.0 ml), trypsinized (100 µl T/E per well, 4 min) and then resuspended in 400 µl culture medium containing FBS. Subsequently, the suspensions were transferred to Eppendorf tubes and centrifuged (200g, 5 min). Cell pellets were resuspended in cold PBS.
(§3) In all experiments, acute toxic effects were determined with a CASY® Cell Counter and Analyzer System (Schärfe-System GmbH, Reutlingen, Germany) (Lindl et al. [2005]). SCGE assays were only performed when the viability of the cultures was ≥ 70% (Koppen et al. [2017]). Per experimental point, two cultures were set up in parallel and from each one slide with two separate gels (30,000 cells/gel) was prepared. After unwinding (40 min, pH > 13) and electrophoresis (30 min, 0.75 V/cm, ~ 300 mA, 4 °C, pH > 13), 50 cells were evaluated per gel (200 cells per experimental point). As an endpoint, we determined the tail intensities (“% DNA in tail”) with a computer-aided system Comet Assay IV (Perceptive Instruments, Bury St Edmunds, UK), which is at present the most widely used parameter (Collins et al. [2008]; Moller [2006]). For each gel, the median of the tail intensity was calculated.

SNU-449 cells = conditions: 48 h
Method: as §1, §2, §3

HuH7 cells = conditions: 48 h
Method: as §1, §2, §3

WRL68 cells = conditions: 48 h
Method: as §1, §2, §3

HepaRG cells = conditions: for Result of SCGE experiments (in words): HepaRG cells; for % DNA in tail: HepaRG, 48 h
Method: as §1, §2, §3

SNU-398 cells = conditions: 48 h
Method: as §1, §2, §3

Hep3B cells = conditions: Hep3B, 48 h
Method: as §1, §2, §3

HepG2 cells = conditions: 48 h
Method: as §1, §2, §3

JHH6 cells = conditions: 48 h, control 0.59 ± 0.21
Method: as §1, §2, §3

[3] = tested on: human derived liver cell lines; conditions: for Number of the twelve lines sensitive towards the compound: SCGE experiments without exogenous enzyme activation mix
Method: as §1, §2, §3

PLC/PRF cells = conditions: PLC/PRF, 48 h
Method: as §1, §2, §3

HuH6 cells = conditions: 48 h
Method: as §1, §2, §3

SK-Hep1 cells = conditions: 48 h
Method: as §1, §2, §3

Cn1c(N)nc2ncc(-c3ccccc3)cc21 [PhIP, 2-amino-1-methyl-6-phenylimidazo[4,5-b]pyridine]
Sensitivity of primary hepatocytes compared with HepG2 [1]: substantially stronger effects | IARC classification [2]: Causes guanine adducts that induces tumors at multiple sites in animal models IARC: Group 2B | % DNA in tail (HCC 1.2 cells; HCC 1.2, PhIP 50.0 µM, control 6.61 ± 2.14, starred P ≤ 0.05): 17.5 ± 4.84% | % DNA in tail (HCC 1.2 cells; HCC 1.2, PhIP 100.0 µM, control 6.61 ± 2.14, starred P ≤ 0.05): 15.1 ± 2.32% | % DNA in tail (HCC 1.2 cells; HCC 1.2, PhIP 300.0 µM, control 6.61 ± 2.14, starred P ≤ 0.05): 14.8 ± 2.63% | % DNA in tail (SNU-449 cells; SNU-449, PhIP 50.0 µM, control 2.12 ± 0.59): 2.02 ± 0.81% | % DNA in tail (SNU-449 cells; SNU-449, PhIP 100.0 µM, control 2.12 ± 0.59): 3.06 ± 1.08% | % DNA in tail (SNU-449 cells; SNU-449, PhIP 300.0 µM, control 2.12 ± 0.59): 1.17 ± 0.83% | % DNA in tail (HuH7 cells; HuH7, PhIP 50.0 µM, control 5.12 ± 1.05): 5.35 ± 2.84% | % DNA in tail (HuH7 cells; HuH7, PhIP 100.0 µM, control 5.12 ± 1.05): 9.21 ± 2.26% | % DNA in tail (HuH7 cells; HuH7, PhIP 300.0 µM, control 5.12 ± 1.05): 3.55 ± 2.08% | % DNA in tail (WRL68 cells; WRL68, PhIP 50.0 µM, control 2.89 ± 1.16): 5.17 ± 3.21% | % DNA in tail (WRL68 cells; WRL68, PhIP 100.0 µM, control 2.89 ± 1.16): 3.77 ± 1.36% | % DNA in tail (WRL68 cells; WRL68, PhIP 300.0 µM, control 2.89 ± 1.16): 3.39 ± 3.35% | Result of SCGE experiments (in words) (HepaRG cells): detected | % DNA in tail (HepaRG cells; PhIP 50.0 µM, control 0.53 ± 0.66, starred P ≤ 0.05): 4.82 ± 3.57% | % DNA in tail (HepaRG cells; PhIP 100.0 µM, control 0.53 ± 0.66): 2.86 ± 1.73% | % DNA in tail (SNU-398 cells; SNU-398, PhIP 50.0 µM, control 5.60 ± 3.26): 2.92 ± 1.18% | % DNA in tail (SNU-398 cells; SNU-398, PhIP 100.0 µM, control 5.60 ± 3.26): 7.04 ± 5.97% | % DNA in tail (SNU-398 cells; SNU-398, PhIP 300.0 µM, control 5.60 ± 3.26): 10.3 ± 1.06% | % DNA in tail (Hep3B cells; PhIP 50.0 µM, control 1.56 ± 0.18): 1.43 ± 0.24% | % DNA in tail (Hep3B cells; PhIP 100.0 µM, control 1.56 ± 0.18): 0.82 ± 0.53% | % DNA in tail (HepG2 cells; HepG2, PhIP 50.0 µM, control 2.90 ± 1.03, starred P ≤ 0.05): 6.92 ± 2.00% | % DNA in tail (HepG2 cells; HepG2, PhIP 100.0 µM, control 2.90 ± 1.03, starred P ≤ 0.05): 6.78 ± 1.37% | % DNA in tail (JHH6 cells; JHH6, PhIP 50.0 µM): 0.93 ± 1.09% | % DNA in tail (JHH6 cells; JHH6, PhIP 100.0 µM): 1.44 ± 0.53% | Number of the twelve lines sensitive towards the compound [3]: four | % DNA in tail (PLC/PRF cells; PhIP 50.0 µM, control 3.82 ± 1.22): 2.51 ± 0.56% | % DNA in tail (PLC/PRF cells; PhIP 100.0 µM, control 3.82 ± 1.22): 4.00 ± 3.72% | % DNA in tail (PLC/PRF cells; PhIP 300.0 µM, control 3.82 ± 1.22): 2.43 ± 2.03% | % DNA in tail (HuH6 cells; HuH6, PhIP 50.0 µM, control 1.81 ± 1.15, starred P ≤ 0.05): 11.51 ± 3.64% | % DNA in tail (HuH6 cells; HuH6, PhIP 100.0 µM, control 1.81 ± 1.15, starred P ≤ 0.05): 8.67 ± 2.67% | % DNA in tail (HuH6 cells; HuH6, PhIP 300.0 µM, control 1.81 ± 1.15, starred P ≤ 0.05): 24.7 ± 2.15% | % DNA in tail (SK-Hep1 cells; SK-Hep1, PhIP 50.0 µM, control 2.84 ± 2.06): 5.18 ± 1.19% | % DNA in tail (SK-Hep1 cells; SK-Hep1, PhIP 100.0 µM, control 2.84 ± 2.06): 5.83 ± 1.06% | % DNA in tail (SK-Hep1 cells; SK-Hep1, PhIP 300.0 µM, control 2.84 ± 2.06): 5.77 ± 4.30%

Cn1c(N)nc2c3cccnc3ccc21 [IQ, 2-amino-3-methyl-3H-imidazo[4,5-f]quinolone]
IARC classification [2]: Causes guanine adducts, clear evidence for carcinogenicity in experiments with rodents IARC: Group 2A | % DNA in tail (HCC 1.2 cells; HCC 1.2, IQ 50.0 µM, control 2.93 ± 1.40): 1.86 ± 0.44% | % DNA in tail (HCC 1.2 cells; HCC 1.2, IQ 100.0 µM, control 2.93 ± 1.40, starred P ≤ 0.05): 7.29 ± 1.87% | % DNA in tail (SNU-449 cells; SNU-449, IQ 50.0 µM, control 1.20 ± 1.18): 3.67 ± 2.95% | % DNA in tail (SNU-449 cells; SNU-449, IQ 100.0 µM, control 1.20 ± 1.18): 1.46 ± 1.21% | % DNA in tail (HuH7 cells; HuH7, IQ 50.0 µM, control 1.29 ± 1.30): 2.16 ± 0.91% | % DNA in tail (HuH7 cells; HuH7, IQ 100.0 µM, control 1.29 ± 1.30): 1.11 ± 0.60% | % DNA in tail (WRL68 cells; WRL68, IQ 50.0 µM, control 0.76 ± 0.77): 1.15 ± 1.44% | % DNA in tail (WRL68 cells; WRL68, IQ 100.0 µM, control 0.76 ± 0.77): 0.56 ± 0.67% | Result of SCGE experiments (in words) (HepaRG cells): negative results | % DNA in tail (HepaRG cells; IQ 50.0 µM, control 2.34 ± 2.92): 2.39 ± 4.10% | % DNA in tail (HepaRG cells; IQ 100.0 µM, control 2.34 ± 2.92): 2.38 ± 1.97% | % DNA in tail (SNU-398 cells; SNU-398, IQ 50.0 µM, control 1.02 ± 0.88): 1.42 ± 0.72% | % DNA in tail (SNU-398 cells; SNU-398, IQ 100.0 µM, control 1.02 ± 0.88): 1.20 ± 0.81% | % DNA in tail (Hep3B cells; IQ 50.0 µM, control 0.92 ± 0.58): 0.88 ± 0.71% | % DNA in tail (Hep3B cells; IQ 100.0 µM, control 0.92 ± 0.58): 1.75 ± 1.45% | % DNA in tail (HepG2 cells; HepG2, IQ 50.0 µM, control 2.16 ± 0.54): 1.32 ± 0.91% | % DNA in tail (HepG2 cells; HepG2, IQ 100.0 µM, control 2.16 ± 0.54, starred P ≤ 0.05): 5.38 ± 2.02% | % DNA in tail (JHH6 cells; JHH6, IQ 50.0 µM): 1.29 ± 1.55% | % DNA in tail (JHH6 cells; JHH6, IQ 100.0 µM): 0.93 ± 0.67% | Number of the twelve lines sensitive towards the compound [3]: three | Doses required to cause significant effects in SCGE assays ([3]; different hepatic lines, in most cases): ≥ 100 mM | % DNA in tail (PLC/PRF cells; IQ 50.0 µM, control 2.47 ± 2.08): 5.17 ± 4.50% | % DNA in tail (PLC/PRF cells; IQ 100.0 µM, control 2.47 ± 2.08): 2.84 ± 2.65% | % DNA in tail (HuH6 cells; HuH6, IQ 50.0 µM, control 4.01 ± 1.68): 5.91 ± 3.05% | % DNA in tail (HuH6 cells; HuH6, IQ 100.0 µM, control 4.01 ± 1.68, starred P ≤ 0.05): 10.82 ± 5.71% | % DNA in tail (SK-Hep1 cells; SK-Hep1, IQ 50.0 µM, control 0.59 ± 0.24): 0.62 ± 0.47% | % DNA in tail (SK-Hep1 cells; SK-Hep1, IQ 100.0 µM, control 0.59 ± 0.24): 1.43 ± 0.95%
